Results reported in patent US6946465B2, “Immunosuppressive effects of pteridine derivatives” (4 AZA Bioscience NV, priority 1999, dated 2005).
pIC50: −log10 of the molar value.

Tests used:
Type in all cases: cell-based, human
[1] = test system: peripheral blood mononuclear cells (PBMC) with allogeneic PBMC or RPMI1788 stimulator cells; assay: Mixed lymphocyte reaction (MLR) test, [3H]-thymidine incorporation; settings: Table 1; 5 days incubation + 16 h thymidine
Source text: (§1) Various models may be used for testing an immunosuppressive effect. In vivo, for example, different transplantation models are available. They are strongly influenced by different immunogenicities, depending on the donor and recipient species used and depending on the nature of the transplanted organ. The survival time of transplanted organs can thus be used to measure the suppression of the immune response. In vitro, the most used models are lymphocyte activation tests. Usually activation is measured via lymphocyte proliferation. Inhibition of proliferation thus always means immunosuppression under the experimental conditions applied. There exist different stimuli for lymphocyte activation: • a) co-culture of lymphocytes of […] (mixed lymphocyte reaction, hereinafter referred as MLR) in a so-called mixed lymphocyte culture test: lymphocytes expressing different minor and major antigens of the HLA-DR type (=alloantigens) activate each other non-specifically. • b) a CD3 assay here there is an activation of the T-lymphocytes via an exogenously added antibody (OKT3).
(§2) All reagents were dissolved in 0.5 ml dimethylsulfoxide (hereinafter referred as DMSO) and further diluted in culture medium before use for the following in vitro experiments. The commercially available culture medium consisted of RPMI-1640+10% foetal calf serum (FCS).
Peripheral blood mononuclear cells (hereinafter referred as PBMC) were isolated from heparinized peripheral blood by density gradient centrifugation over Lymphoprep (Nycomed, Maorstua, Norway). Allogeneic PBMC or Eppstein-Barr Virus-transformed human B cells [commercially available under the trade name RPM11788 (ATCC name CCL156)] which strongly express B7-1 and B7-2 antigens were used as stimulator cells after irradiation with 30 Gy. MLR was performed in triplicate wells. After 5 days incubation at 37° C., 1 μCi [^3 H]-thymidine was added to each cup. After a further 16 hours incubation, cells were harvested and counted in a β-counter. Inhibition of proliferation by a compound (drug) described in some of the previous examples was counted using the formula: [formula] wherein cpm is the thymidine count per minute. Assays for CD3 and CD 28

[2] = test system: highly purified T cells stimulated by immobilized anti-CD3 mAb; assay: CD3 assay: T-cell proliferation stimulated by anti-CD3 mAb + PMA (BrdU); settings: Table 1; anti-CD3 mAb + PMA 0.5 ng/ml, 48 h; read-out: CD 3 IC50
Source text: as §1, §2
(§3) T cells were purified by removing non-T cells. Briefly, monocytes were removed by cold agglutination. The resulting lymphoid cells were further purified by a cell enrichment immunocolumn [Cellect Human T commercially available from Biotex, Edmonton, Alberta, Canada)] by a process of negative selection.
(§4) Highly purified T cells (10^6/ml) were stimulated by immobilized anti-CD3 or anti-CD28 monoclonal antibodies (hereinafter referred as mAb) in the presence of PMA. Anti-CD3 mAb (available from CLB, Amsterdam, Netherlands) were fixed on the 96-microwell plates by incubating the wells with 50 μl of mAb solution (1/800 dilution in culture medium). For anti-CD28 mAb (available from CLB, Amsterdam, Netherlands) 50 μl (1/650 dilution in culture medium) was added directly to the wells. Further, a 20 μl phorbol myristate acetate (hereinafter referred as PMA (commercially available from Sigma, St. Louis, Mo., USA) solution (final concentration: 0.5 ng/ml) was added. Subsequently, 20 μl of a compound described in some of the previous examples were added by serial dilution in triplicate wells. Finally 100 μl of the T-cell suspension (10^6/ml) was added. After 48-hour incubation at 37° C. in 5% CO2 20 μl of a bromo-deuridine (hereinafter referred as BrdU) 100 μM solution (commercially available as Cell Proliferation Elisa from Boehringer-Mannheim Belgium) was added to each well. After a further overnight incubation, T-cell proliferation was measured using a colorimetric immunoassay for qualification of cell proliferation based on the incorporation of BrdU during DNA synthesis. Optical density (hereinafter referred as OD) was measured by a Behring EL311 plate reader at 450 nm (reference wavelength: 690 nm). Inhibition of proliferation by a compound (drug) described in some of the previous examples was counted using the formula: [formula]

[3] = test system: highly purified T cells stimulated by anti-CD28 mAb; assay: CD28 assay: T-cell proliferation stimulated by anti-CD28 mAb + PMA (BrdU); settings: Table 1; anti-CD28 mAb + PMA 0.5 ng/ml, 48 h
Source text: as §1, §2, §3, §4

Row | SMILES | pIC50 [1] | pIC50 [2] | pIC50 [3]
1 | Cc1nc2c(=O)n(C)c(=O)n(C)c2nc1C=Cc1ccccc1 [Example 76, 7-(2-phenylethenyl)-1,3,6-trimethyl-lumazine] | 3.92 | 4.17 | 3.94
2 | CC(C)Nc1nc2c(nc1C=O)c(=O)n(C)c(=O)n2C [Example 66, 6-formyl-7-isopropylamino-1,3-dimethyl-lumazine] | 4.04 | 4.17 | 4.04
3 | CCOC(=O)c1nc2c(=O)n(C)c(=O)n(C)c2nc1NNc1ccccc1 [Example 64, 6-ethylcarboxylate-7-phenylhydrazino-1,3-dimethyl-lumazine] | 4.70 | 4.25 | 4.92
4 | C=CCNc1nc2c(nc1C(=O)OCC)c(=O)n(C)c(=O)n2C [Example 62, 6-ethylcarboxylate-7-(2-propenylamino)-1,3-dimethyl-lumazine] | 4.22 | 4.04 | 4.25
5 | Cn1c(=O)c2nc(C(Cl)Cl)c(SCc3ccccc3)nc2n(C)c1=O [Example 71, 6-dichloromethyl-7-mercaptobenzyl-1,3-dimethyl-lumazine] | 4.25 | < 4.70 | < 4.70
6 | Cn1c(=O)c2nc(C(O)C[N+](=O)[O-])cnc2n(C)c1=O (stereo not drawn) [Example 17, 6-[(1-hydroxy-2-nitro)ethyl]-1,3-dimethyllumazine] | 4.05 | 4.60 | 4.82
7 | CCCCN(CCCC)c1nc2c(nc1C#N)c(=O)n(C)c(=O)n2C [Example 56, 6-cyano-7-dibutylamino-1,3-dimethyl-lumazine] | 4.92 | 3.82 | 3.94
8 | Cn1c(=O)c2nc(C=Cc3ccccc3)cnc2n(C)c1=O [Example 79, 6-[2-phenylethenyl]-1,3-dimethyllumazine] | 4.77 | 3.98 | < 3.70
9 | CC(C)Sc1nc2c(nc1C#N)c(=O)n(C)c(=O)n2C [Example 58, 6-cyano-7-mercaptoisopropyl-1,3-dimethyl-lumazine] | 3.94 | 3.98 | 3.94
10 | COC(=O)/C=C/c1cnc2c(=O)n(C)c(=O)n(C)c2n1 [Example 24, 7-[(E)-2-methoxycarbonylethenyl]-1,3-dimethyl-lumazine] | 4.82 | 4.92 | 4.92
11 | CC(=O)Nc1nc2c(nc1C#N)c(=O)n(C)c(=O)n2C [Example 54, 6-cyano-7-acetenylamino-1,3-dimethyl-lumazine] | 3.85 | 3.98 | 4.10
12 | Cn1c(=O)c2nc(C=O)c(O)nc2n(C)c1=O [Example 45, 6-formyl-7-hydroxy-1,3-dimethyl-lumazine] | < 3.70 | 4.81 | 5.05
13 | Cn1c(=O)c2nc(-c3ccccc3)c(Cl)nc2n(C)c1=O [Example 34, 7-chloro-1,3-dimethyl-6-phenyllumazine] | 5.43 | 7.10 | 7.15
14 | Cn1c(=O)c2nc(C#N)c(NC3CCCCC3)nc2n(C)c1=O [Example 55, 6-cyano-7-cyclohexylamino-1,3-dimethyl-lumazine] | 4.82 | 4.04 | 4.04
15 | Cn1c(=O)c2ncc(Cl)nc2n(C)c1=O [Example 31, 7-chloro-1,3-dimethyllumazine] | 4.92 | – | 7.00
16 | Cn1c(=O)c2nc(Cl)c(N3CCCCC3)nc2n(C)c1=O [Example 75, 6-chloro-7-piperidyl-1,3-diimethyl-lumazine] | 3.80 | 4.10 | 4.10
17 | CCCn1c(=O)c2nc(-c3ccccc3)c(O)nc2n(CCC)c1=O [Example 44, 7-hydroxy-6-phenyl-1,3-di-n-propyllumazine] | 3.92 | 4.10 | 4.15

Row | SMILES | pIC50 [1] | pIC50 [2] | pIC50 [3]
18 | CCOC(=O)CSc1nc2c(nc1C(Cl)Cl)c(=O)n(C)c(=O)n2C [Example 72, 6-dichloromethyl-7-ethylmercaptoacetate-1,3-dimethyl-lumazine] | 3.94 | < 4.70 | 4.72
19 | CCOc1nc2c(nc1-c1ccccc1)c(=O)n(C)c(=O)n2C [Example 33, 7-ethoxy-1,3-dimethyl-6-phenyllumazine] | 4.40 | 4.00 | 4.15
20 | Cn1c(=O)c2ncc(/C=C/c3ccccc3)nc2n(C)c1=O [Example 26, 1,3-dimethyl-7-(E)-styryllumazine] | 4.30 | 3.94 | 3.94
21 | Cn1c(=O)c2nc(-c3ccccc3)c(S)nc2n(C)c1=O [Example 32, 1,3-dimethyl-6-phenyl-7-mercaptolumazine] | 4.60 | 4.60 | 4.60
22 | Cn1c(=O)c2nc(/C=C/c3ccncc3)cnc2n(C)c1=O [Example 7, 1,3-dimethyl-6-[(E)-2-(pyrid-4-yl)vinyl]lumazine] | 4.70 | 3.82 | 3.82
23 | Cn1c(=O)[nH]c(=O)c2nc(-c3ccccc3)c(-c3ccccc3)nc21 [Example 41, 1-methyl-6,7-diphenyllumazine] | 4.46 | 4.60 | 4.60
24 | Cn1c(=O)c2nc(/C=C/C=Cc3ccccc3)cnc2n(C)c1=O [Example 9, 1,3-dimethyl-6-[(E)-4-(phenyl)butadienyl]lumazine] | 4.12 | 3.85 | 3.85
25 | COC(=O)C(Br)C(Br)c1cnc2c(=O)n(C)c(=O)n(C)c2n1 (stereo not drawn) [Example 25, 7-[1,2-dibromo-2-(methoxycarbonyl)ethyl)-1,3-dimethyllumazine] | 5.72 | – | –
26 | COC(=O)C(Br)=Cc1cnc2c(n1)c(=O)n(C)c(=O)n2C [Example 12, 6-(2-bromo-2-methoxycarbonyl-ethenyl)-1,3-dimethyllumazine] | – | 6.24 | 7.10
27 | Cn1c(=O)c2ncc(C(Br)C(Br)c3ccccc3)nc2n(C)c1=O (stereo not drawn) [Example 27, 7-(1,2-dibromo-2-phenylethyl)-1,3-dimethyllumazine] | 4.92 | – | 7.00
28 | Cn1c(=O)c2nc(C=O)c(NC3CC3)nc2n(C)c1=O [Example 70, 6-formyl-7-cyclopropylamino-1,3-dimethyl-lumazine] | 4.10 | 4.10 | 3.94
29 | CC(C)CNc1nc2c(nc1C#N)c(=O)n(C)c(=O)n2C [Example 52, 6-cyano-7-isobutylamino-1,3-dimethyl-lumazine] | 3.94 | 3.94 | 4.10
30 | Cn1c(=O)c2nc(O)c(C=O)nc2n(C)c1=O [Example 46, 6-hydroxy-7-formyl-1,3-dimethyl-lumazine] | 4.14 | 3.98 | 4.10
31 | Cn1c(=O)c2nc(C(Br)C(Br)c3ccccc3)cnc2n(C)c1=O (stereo not drawn) [Example 8, 6-(1,2-dibromo-2-phenylethyl)-1,3-dimethyllumazine] | 4.82 | – | 5.81
32 | Cn1c(=O)c2nc(C=Cc3ccc(OC(F)(F)F)cc3)cnc2n(C)c1=O [Example 80, 6-[2-(p-trifluoromethoxyphenyl)ethenyl]-1,3-dimethyllumazine] | 5.05 | – | –
33 | CCOC(=O)CSc1nc2c(nc1C#N)c(=O)n(C)c(=O)n2C [Example 81, 6-cyano-7-ethylmercaptoacetate-1,3-dimethyllumazine] | 4.91 | – | –
34 | CCOC(=O)c1nc2c(=O)n(C)c(=O)n(C)c2nc1Cl [Example 48, 6-ethylcarboxylate-7-chloro-1,3-dimethyl-lumazine] | 4.90 | – | –
